We go through 98 compounds from a melting point compilation (Tetko et al.).

For the data set the following is noted: a range is the spread between reports.

In turn, `CCN(CC)C(=S)SSC(=S)N(CC)CC` returned a melting point of 70 to 71.5 °C.
Take `O=C(c1ccccc1)C(Cl)Cl`: the melting point was in the range of 20.5 to 21 °C.
Turning to `O=C1c2ccccc2C(=O)c2cc(Cl)ccc21`, the melting point is 209 to 211 °C.
The compound `CCCCCC(=O)O` yielded a melting point of -4 to -1.9 °C.
Consider `COc1ccccc1Br`, for which the melting point lay in the range of 2 to 3 °C.
As for `Fc1ccc(C(F)(F)F)cc1`, the figure is -42 to -41.7 °C.
As for `CC(=O)Nc1ccc(C(=O)O)cc1`, the figure is 256 to 260 °C; as for `O=C(O)c1cccc(Cl)c1Cl`, 168 to 169 °C.
`CC(=O)c1ccc(Cl)cc1` returned a melting point of 18 to 20 °C.
As for `IC(I)I`, the figure is 119 to 122 °C.
For the compound `Nc1ccccc1I`, the melting point was 55 to 58 °C.
In the case of `C1CNCCNC1` it was 41 to 43.5 °C; in that of `Cn1ccc(=O)n(C)c1=O`, 120 to 121 °C.
In turn, `O=C(O)c1cc(Cl)ccc1[N+](=O)[O-]` gave a melting point of 138 to 139 °C.
`CCCCCCOC=O` came in with a melting point of -63 to -62.6 °C.
`Cc1ccc(C)c(C)c1C`: the melting point is -6.2 to -6 °C.
In the case of `c1ccc(-c2nc(-c3ccccc3)c(-c3ccccc3)[nH]2)cc1` it was 275 to 276 °C; in that of `O=Cc1ccc(CO)o1`, 31.5 to 34 °C; in that of `Cc1ncc([N+](=O)[O-])n1CCO`, 159 to 160 °C.
As for `c1ccc(SSc2ccccc2)cc1`, the figure is 60 to 62 °C; as for `c1ccc(CNCCNCc2ccccc2)cc1`, 24 to 26 °C; as for `CCCCCCCCCCCCCCC(=O)O`, 52 to 53 °C.
`O=Cc1ccccc1Br` yielded a melting point of 20 to 22 °C.
Take `O=C(O)CCCCCCCBr`: the melting point is 38.5 to 39 °C.
In the case of `CC(C)CCCC(C)C1CCC2C3CC(O)C4(O)CC(O)CCC4(C)C3CCC12C` (stereo not drawn) it was 237 to 238 °C; in that of `COc1ccc(C=Nc2ccccc2)cc1`, 61 to 65 °C; in that of `COc1ccc2ccccc2c1C=O`, 83 to 84 °C.
As for `CC(C)(C)c1ccc(C(O)CCCN2CCC(C(O)(c3ccccc3)c3ccccc3)CC2)cc1` (stereo not drawn), the melting point fell in the range of 147 to 148 °C.
In the case of `Sc1ccc(Br)cc1` it was 73 to 75 °C.
Compound `COC(=O)c1ccc(C=O)cc1` gave a melting point of 60 to 61 °C.
Turning to `CC(C)C(C(C)C)C(C)C`, the melting point was -82 to -81.7 °C.
As for `CCCC(C)C1(CC)C(=O)NC(=O)NC1=O` (stereo not drawn), the figure is 130 °C.
`CN(C)c1cccc2c(S(N)(=O)=O)cccc12`: the melting point is 220 °C.
In the case of `CCc1cccc(CC)c1` it was -84 to -83.9 °C.
As for `CCCCCCCCCCCCCCCCCCCCCCCCCC`, the figure is 56.4 to 57 °C; as for `CC(=O)c1cccc([N+](=O)[O-])c1`, 78 to 81 °C; as for `O=Cc1cccc(C=O)c1`, 87.8 to 89.5 °C.
For `N#CCc1ccc(Cl)cc1`, the melting point is 30 to 31 °C.
The compound `C(CC1CCNCC1)CC1CCNCC1` yielded a melting point of 66 to 67.1 °C.
The compound `COc1ccc(-c2ccccc2)cc1` returned a melting point of 88 to 91 °C.
As to `O=C(O)C=Cc1cccc(Br)c1`, the melting point lay in the range of 177 to 180 °C.
In the case of `CCCCCCC(C)O` (stereo not drawn) it was -32 to -31.6 °C.
Take `O=C(O)CCC(=O)C(=O)O`: the melting point is 115 to 116 °C.
As for `Oc1cc(O)cc(O)c1`, the figure is 218 °C; as for `c1ccc(P(c2ccccc2)c2ccccc2)cc1`, 80 to 80.5 °C.
Regarding `CC(=O)O[Si](C)(OC(C)=O)OC(C)=O`, the melting point fell in the range of 40.5 to 43 °C.
`O=C(O)c1ccccc1F` gave a melting point of 124 to 126 °C.
`O=P(O)(O)CCCl` had a melting point of 70 to 74.5 °C.
As for `Sc1nc2ccccc2[nH]1`, the figure is 298 °C; as for `Nc1ccc2cc3ccccc3cc2c1`, 235 to 239 °C.
In the case of `CCOC(=O)c1csc(C)n1` it was 55 to 57 °C; in that of `OCC(CO)(CO)CO`, 258 to 262 °C.
As for `Nc1ccccc1C(=O)O`, the figure is 144 to 147 °C.
On to `CC(=O)Nc1cccc(C(F)(F)F)c1`, for which the melting point fell in the range of 104 to 105 °C.
In turn, `CCC(c1ccccc1)c1ccccc1` yielded a melting point of 13.3 to 14 °C.
The compound `O=C(c1ccc(Cl)cc1)c1ccc(Cl)cc1` had a melting point of 145 to 148 °C.
The compound `Cc1cc(C)cc(C(=O)O)c1` yielded a melting point of 170 to 171 °C.
In the case of `CCOC(=O)CC` it was -73.9 to -73 °C; in that of `O=S(=O)(c1ccccc1)c1ccc(Cl)cc1`, 92 to 94 °C; in that of `ClCc1ccccc1CCl`, 55 to 56 °C.
On to `Cc1cc(Cl)c(C)cc1Cl`, for which the melting point was in the range of 68 to 71 °C.
In the case of `O=C(O)Cc1cccc2ccccc12` it was 130 to 135 °C; in that of `N#CCc1ccc(N)cc1`, 44 to 46 °C.
As for `ClC(Cl)Br`, the figure is -57 to -55 °C.
`CC1CC=CCC1` (stereo not drawn) came in with a melting point of -116 to -115 °C.
Compound `O=C(O)Cc1sc(-c2ccccc2)nc1-c1ccc(Cl)cc1` showed a melting point of 161 to 162 °C.
As for `O=C1CCCC(=O)C1`, the figure is 103 to 106 °C.
In the case of `CN(C)C(=O)Nc1cccc(C(F)(F)F)c1` it was 164 °C.
The compound `Cc1c(C)c(C)c(C)c(C)c1C` came in with a melting point of 164 to 168 °C.
As for `C[C@H](O)[C@@H](C)O`, the figure is 33 to 34.5 °C; as for `CCc1ccc(C(=O)O)cc1`, 112 to 113 °C; as for `O=S(=O)(Cl)c1cccs1`, 28 to 30 °C.
As for `CCc1cccc(C)c1C`, the figure is -50 to -49.5 °C.
As for `CC(=O)Oc1ccccc1OC(C)=O`, the figure is 64 to 64.5 °C; as for `O=C(O)c1ccc2ccccc2n1`, 156 to 158 °C; as for `CC(=O)c1cccc(N)c1`, 96 to 98.5 °C.
The compound `CCCCCCCCCCCCCCCCC` came in with a melting point of 21 to 22 °C.
In the case of `Cc1ccc(O)c(C(=O)O)c1` it was 151 to 153 °C; in that of `Clc1cccs1`, -72 to -71.9 °C.
The compound `CCCC(C)Br` (stereo not drawn) registered a melting point of -96 to -95.5 °C.
As for `Cc1ccc(S(=O)(=O)Cl)cc1`, the figure is 68 to 71 °C.
`CCOc1ccc(N)cc1`: the melting point lay in the range of 2.4 to 4 °C.
Compound `O=C(O)c1ccccc1-c1ccccc1` came in with a melting point of 112 to 115 °C.
Take `COC(=O)c1ccc(OC)c(OC)c1`: the melting point lay within 59 to 60.8 °C.
As for `ClCC(Cl)(Cl)Cl`, the figure is -70.2 to -70 °C; as for `CC(C)(C)C(=O)CC#N`, 68 to 71 °C; as for `CC=C1CCCC1`, -130 °C.
In the case of `O=P(O)(O)CP(=O)(O)O` it was 200 to 203 °C; in that of `C=C(C)CCCCCC`, -78 to -77.8 °C.
As for `O=S(=O)(c1ccccc1)c1ccccc1`, the figure is 128 °C; as for `O=C(C=Cc1ccccc1)c1ccc(Cl)cc1`, 96 to 99 °C; as for `BrCCCCCCCCCCCCBr`, 40 to 41 °C.
Turning to `CCCCCCCCCCCCCCC(C)O` (stereo not drawn), the melting point lay in the range of 44 to 47 °C.
The compound `COc1cc(OC)c(C(=O)O)cc1OC` displayed a melting point of 144 to 145 °C.
Consider `c1ccc2cc3ccccc3cc2c1`, for which the melting point was 215 to 218 °C.
As for `OCCOCCO`, the figure is -10.4 to -10 °C; as for `CC#N`, -48 to -43.8 °C; as for `CC(C)(C)c1cccc(C(C)(C)C)n1`, 2 to 2.2 °C.
